{"source": "the NIST ThermoML archive (doi:10.1016/j.jct.2016.08.010)", "experiment": "xn = mol fraction of the nth substance listed", "conditions": "100 kPa, Liquid; for speed of sound: Frequency=3 MHz, Sing-around technique in a fixed-path interferometer; for mass density: Vibrating tube method", "note": "± gives the expanded uncertainty stated by the source."}
{"smiles": "CCCCn1cc[n+](C)c1C.F[B-](F)(F)F", "note": "[1-butyl-2,3-dimethylimidazolium tetrafluoroborate] + CCCCn1cc[n+](C)c1.F[B-](F)(F)F", "values": [{"measurement": "speed of sound", "setting": "303.15 K, x1 = 0.0917", "result": "1562.2 ± 1.7", "unit": "m/s"}, {"measurement": "speed of sound", "setting": "303.15 K, x1 = 0.1281", "result": "1565.4 ± 1.7", "unit": "m/s"}, {"measurement": "speed of sound", "setting": "303.15 K, x1 = 0.1633", "result": "1568.4 ± 1.7", "unit": "m/s"}, {"measurement": "speed of sound", "setting": "303.15 K, x1 = 0.2059", "result": "1572 ± 1.7", "unit": "m/s"}, {"measurement": "speed of sound", "setting": "303.15 K, x1 = 0.2455", "result": "1575.3 ± 1.7", "unit": "m/s"}, {"measurement": "speed of sound", "setting": "303.15 K, x1 = 0.2967", "result": "1579.5 ± 1.7", "unit": "m/s"}, {"measurement": "speed of sound", "setting": "303.15 K, x1 = 0.3424", "result": "1583.1 ± 1.6", "unit": "m/s"}, {"measurement": "speed of sound", "setting": "303.15 K, x1 = 0.3974", "result": "1587.4 ± 1.6", "unit": "m/s"}, {"measurement": "speed of sound", "setting": "303.15 K, x1 = 0.4496", "result": "1591.5 ± 1.6", "unit": "m/s"}, {"measurement": "speed of sound", "setting": "303.15 K, x1 = 0.4997", "result": "1595.2 ± 1.6", "unit": "m/s"}, {"measurement": "speed of sound", "setting": "303.15 K, x1 = 0.5418", "result": "1598.4 ± 1.6", "unit": "m/s"}, {"measurement": "speed of sound", "setting": "303.15 K, x1 = 0.5941", "result": "1602.2 ± 1.6", "unit": "m/s"}, {"measurement": "speed of sound", "setting": "303.15 K, x1 = 0.6398", "result": "1605.6 ± 1.6", "unit": "m/s"}, {"measurement": "speed of sound", "setting": "303.15 K, x1 = 0.6873", "result": "1609.1 ± 1.6", "unit": "m/s"}, {"measurement": "speed of sound", "setting": "303.15 K, x1 = 0.7388", "result": "1612.9 ± 1.6", "unit": "m/s"}, {"measurement": "speed of sound", "setting": "303.15 K, x1 = 0.7963", "result": "1617.1 ± 1.6", "unit": "m/s"}, {"measurement": "speed of sound", "setting": "303.15 K, x1 = 0.8482", "result": "1621 ± 1.6", "unit": "m/s"}, {"measurement": "speed of sound", "setting": "303.15 K, x1 = 0.8903", "result": "1624.2 ± 1.5", "unit": "m/s"}, {"measurement": "speed of sound", "setting": "303.15 K, x1 = 1", "result": "1632.5 ± 1.5", "unit": "m/s"}, {"measurement": "mass density", "setting": "303.15 K, x1 = 0.0917", "result": "1192.4 ± 2.1", "unit": "kg/m3"}, {"measurement": "mass density", "setting": "303.15 K, x1 = 0.1281", "result": "1191.4 ± 2", "unit": "kg/m3"}, {"measurement": "mass density", "setting": "303.15 K, x1 = 0.1633", "result": "1190.4 ± 2", "unit": "kg/m3"}, {"measurement": "mass density", "setting": "303.15 K, x1 = 0.2059", "result": "1189.5 ± 2", "unit": "kg/m3"}, {"measurement": "mass density", "setting": "303.15 K, x1 = 0.2455", "result": "1188.6 ± 2", "unit": "kg/m3"}, {"measurement": "mass density", "setting": "303.15 K, x1 = 0.2967", "result": "1187.8 ± 2", "unit": "kg/m3"}, {"measurement": "mass density", "setting": "303.15 K, x1 = 0.3424", "result": "1187.1 ± 2", "unit": "kg/m3"}, {"measurement": "mass density", "setting": "303.15 K, x1 = 0.3974", "result": "1186.6 ± 2", "unit": "kg/m3"}, {"measurement": "mass density", "setting": "303.15 K, x1 = 0.4496", "result": "1186.3 ± 2", "unit": "kg/m3"}, {"measurement": "mass density", "setting": "303.15 K, x1 = 0.4997", "result": "1186.2 ± 2", "unit": "kg/m3"}, {"measurement": "mass density", "setting": "303.15 K, x1 = 0.5418", "result": "1186.2 ± 2", "unit": "kg/m3"}, {"measurement": "mass density", "setting": "303.15 K, x1 = 0.5941", "result": "1186.4 ± 2", "unit": "kg/m3"}, {"measurement": "mass density", "setting": "303.15 K, x1 = 0.6398", "result": "1186.7 ± 2", "unit": "kg/m3"}, {"measurement": "mass density", "setting": "303.15 K, x1 = 0.6873", "result": "1187 ± 2", "unit": "kg/m3"}, {"measurement": "mass density", "setting": "303.15 K, x1 = 0.7388", "result": "1187.4 ± 2", "unit": "kg/m3"}, {"measurement": "mass density", "setting": "303.15 K, x1 = 0.7963", "result": "1187.9 ± 2", "unit": "kg/m3"}, {"measurement": "mass density", "setting": "303.15 K, x1 = 0.8482", "result": "1188.4 ± 2", "unit": "kg/m3"}, {"measurement": "mass density", "setting": "303.15 K, x1 = 0.8903", "result": "1188.7 ± 2", "unit": "kg/m3"}, {"measurement": "mass density", "setting": "303.15 K, x1 = 1", "result": "1189.7 ± 2", "unit": "kg/m3"}, {"measurement": "speed of sound", "setting": "308.15 K, x1 = 0.0917", "result": "1550 ± 1.7", "unit": "m/s"}, {"measurement": "speed of sound", "setting": "308.15 K, x1 = 0.1281", "result": "1553.1 ± 1.7", "unit": "m/s"}, {"measurement": "speed of sound", "setting": "308.15 K, x1 = 0.1633", "result": "1556 ± 1.7", "unit": "m/s"}, {"measurement": "speed of sound", "setting": "308.15 K, x1 = 0.2059", "result": "1559.5 ± 1.7", "unit": "m/s"}, {"measurement": "speed of sound", "setting": "308.15 K, x1 = 0.2455", "result": "1562.7 ± 1.7", "unit": "m/s"}, {"measurement": "speed of sound", "setting": "308.15 K, x1 = 0.2967", "result": "1566.8 ± 1.7", "unit": "m/s"}, {"measurement": "speed of sound", "setting": "308.15 K, x1 = 0.3424", "result": "1570.4 ± 1.6", "unit": "m/s"}, {"measurement": "speed of sound", "setting": "308.15 K, x1 = 0.3974", "result": "1574.6 ± 1.6", "unit": "m/s"}, {"measurement": "speed of sound", "setting": "308.15 K, x1 = 0.4496", "result": "1578.6 ± 1.6", "unit": "m/s"}, {"measurement": "speed of sound", "setting": "308.15 K, x1 = 0.4997", "result": "1582.4 ± 1.6", "unit": "m/s"}, {"measurement": "speed of sound", "setting": "308.15 K, x1 = 0.5418", "result": "1585.5 ± 1.6", "unit": "m/s"}, {"measurement": "speed of sound", "setting": "308.15 K, x1 = 0.5941", "result": "1589.4 ± 1.6", "unit": "m/s"}, {"measurement": "speed of sound", "setting": "308.15 K, x1 = 0.6398", "result": "1592.9 ± 1.6", "unit": "m/s"}, {"measurement": "speed of sound", "setting": "308.15 K, x1 = 0.6873", "result": "1596.3 ± 1.6", "unit": "m/s"}, {"measurement": "speed of sound", "setting": "308.15 K, x1 = 0.7388", "result": "1600.1 ± 1.6", "unit": "m/s"}, {"measurement": "speed of sound", "setting": "308.15 K, x1 = 0.7963", "result": "1604.4 ± 1.6", "unit": "m/s"}, {"measurement": "speed of sound", "setting": "308.15 K, x1 = 0.8482", "result": "1608.4 ± 1.6", "unit": "m/s"}, {"measurement": "speed of sound", "setting": "308.15 K, x1 = 0.8903", "result": "1611.4 ± 1.5", "unit": "m/s"}, {"measurement": "speed of sound", "setting": "308.15 K, x1 = 1", "result": "1619.8 ± 1.5", "unit": "m/s"}, {"measurement": "mass density", "setting": "308.15 K, x1 = 0.0917", "result": "1189.4 ± 2.1", "unit": "kg/m3"}, {"measurement": "mass density", "setting": "308.15 K, x1 = 0.1281", "result": "1188.6 ± 2", "unit": "kg/m3"}, {"measurement": "mass density", "setting": "308.15 K, x1 = 0.1633", "result": "1187.9 ± 2", "unit": "kg/m3"}, {"measurement": "mass density", "setting": "308.15 K, x1 = 0.2059", "result": "1187.1 ± 2", "unit": "kg/m3"}, {"measurement": "mass density", "setting": "308.15 K, x1 = 0.2455", "result": "1186.4 ± 2", "unit": "kg/m3"}, {"measurement": "mass density", "setting": "308.15 K, x1 = 0.2967", "result": "1185.7 ± 2", "unit": "kg/m3"}, {"measurement": "mass density", "setting": "308.15 K, x1 = 0.3424", "result": "1185.2 ± 2", "unit": "kg/m3"}, {"measurement": "mass density", "setting": "308.15 K, x1 = 0.3974", "result": "1184.8 ± 2", "unit": "kg/m3"}, {"measurement": "mass density", "setting": "308.15 K, x1 = 0.4496", "result": "1184.6 ± 2", "unit": "kg/m3"}, {"measurement": "mass density", "setting": "308.15 K, x1 = 0.4997", "result": "1184.5 ± 2", "unit": "kg/m3"}, {"measurement": "mass density", "setting": "308.15 K, x1 = 0.5418", "result": "1184.5 ± 2", "unit": "kg/m3"}, {"measurement": "mass density", "setting": "308.15 K, x1 = 0.5941", "result": "1184.7 ± 2", "unit": "kg/m3"}, {"measurement": "mass density", "setting": "308.15 K, x1 = 0.6398", "result": "1184.9 ± 2", "unit": "kg/m3"}, {"measurement": "mass density", "setting": "308.15 K, x1 = 0.6873", "result": "1185.3 ± 2", "unit": "kg/m3"}, {"measurement": "mass density", "setting": "308.15 K, x1 = 0.7388", "result": "1185.7 ± 2", "unit": "kg/m3"}, {"measurement": "mass density", "setting": "308.15 K, x1 = 0.7963", "result": "1186.1 ± 2", "unit": "kg/m3"}, {"measurement": "mass density", "setting": "308.15 K, x1 = 0.8482", "result": "1186.5 ± 2", "unit": "kg/m3"}, {"measurement": "mass density", "setting": "308.15 K, x1 = 0.8903", "result": "1187 ± 2", "unit": "kg/m3"}, {"measurement": "mass density", "setting": "308.15 K, x1 = 1", "result": "1187.9 ± 2", "unit": "kg/m3"}]}
